Patent US9549965B2, “Pharmaceutical composition for treating a microbial infection” (HELPERBY THERAPEUTICS LIMITED, priority 2010, dated 2017)
≈ marks a conversion by molar mass, not a printed value.

Columns and labels:
[1] = system: clinically latent microorganisms; experiment: Screening for ability to kill clinically latent microorganisms (method of WO2000028074); assay type: cell-based
Excerpt: International Patent Application, Publication Number WO2000028074 describes a method of screening compounds to determine their ability to kill clinically latent microorganisms. […] This observation has necessitated the development of novel antimicrobials which may be used to kill clinically latent microorganisms.
By way of example, WO2000028074 describes a suitable method of screening compounds to determine their ability to kill clinically latent microorganisms. A typical method may include the following steps: • (1) growing a bacterial culture to stationary phase; • (2) treating the stationary phase culture with one or more antimicrobial agents at a concentration and or time sufficient to kill growing bacteria, thereby selecting a phenotypically resistant sub-population; • (3) incubating a sample of the phenotypically resistant subpopulation with one or more test compounds or agents; and • (4) assessing any antimicrobial effects against the phenotypically resistant subpopulation.

[2] = system: persistent E. coli; experiment: Bactericidal activity against persistent E. coli selected by gentamicin; assay type: cell-based, Escherichia coli; details: Escherichia coli, read-out: Log Kill
Experimental: (§1) Escherichia coli K12; Gram negative; Reference strain.
An antibiotic (gentamicin) was added to 5-6 day stationary-phase cultures to the final concentration of 50 to 100 μg/ml for 24 hours. After 24 hours of antibiotic treatment, the cells are washed 3 times with phosphate buffered saline (PBS), and then resuspended in PBS. The surviving bacterial cells are used as persisters. Viability is estimated by CFU counts. The persisters were then used in measurements of bactericidal activity for test compounds.
Different concentrations of each test compound were incubated with the (persister) cell suspension in 96 well plates for various periods of time (24 and 48 hours). Bactericidal activity was then determined by taking CFU counts of the resulting cultures, as described above.

[3] = system: NDM-1 Klebsiella pneumoniae; experiment: Chequerboard analysis with colistin against NDM-1 Klebsiella pneumoniae; assay type: cell-based
[4] = system: log phase E. coli; experiment: MIC against log phase E. coli; assay type: cell-based, Escherichia coli; details: Escherichia coli, read-out: MIC
Experimental: as §1
The above-described overnight cultures were diluted (1000×) with iso-sensitest broth. The cultures were then incubated at 37° C. with shaking for 1-2 hours to reach log CFU 6, which served as log phase cultures.
The bactericidal activity of the drugs against log phase cultures were determined by minimal inhibitory concentration (MIC) of the drugs, which is defined as the lowest concentration which inhibits visible growth. Different concentrations of each test compound were incubated with the log-phase cultures in 96 well plates for 24 hours. Bactericidal activity was then examined by taking a spectrophotometer reading (using a plate reader) at 405 nm.

[5] = system: stationary phase E. coli; experiment: Bactericidal activity against stationary phase E. coli (CFU counts); assay type: cell-based, Escherichia coli; details: Escherichia coli, read-out: Log kill
Experimental: as §1
(§2) Bacteria were grown in 10 ml of nutrient broth (No. 2 (Oxoid)) overnight at 37° C., with continuous shaking at 120 rpm. The overnight cultures were diluted (1000×) in 100 ml of growth medium and then incubated without shaking for 10 days. Viability of the bacteria was estimated by colony forming unit (CFU) counts at 2 hour intervals at the first 24 hours and at 12-24 hours afterwards. From serial 10-fold dilutions of the experimental cultures, 100 μl samples were added to triplicate plates of nutrient agar plates (Oxoid) and blood agar plates (Oxoid). Colony forming units (CFU) were counted after incubation of the plates at 37° C. for 24 hours.
(§3) Cultures incubated for more than 24 hours are in the stationary phase. For drug screening, 5-6 day old stationary phase cultures were used.
(§4) Different concentrations of each test compound were incubated with stationary phase cultures (5-6 day cultures) in 96 well plates for 24 or 48 hours. Bactericidal activity was then determined by taking CFU counts of the resulting cultures, as described above.

[6] = system: stationary phase S. aureus; experiment: Bactericidal activity against stationary phase S. aureus (CFU counts); assay type: cell-based, Staphylococcus aureus; details: Staphylococcus aureus, read-out: Log Kill
Experimental: Staphylococcus aureus (Oxford strain); Gram positive; Reference strain.
as §2, §3, §4

[7] = system: stationary phase P. aeruginosa; experiment: Bactericidal activity against stationary phase P. aeruginosa; assay type: cell-based, Pseudomonas aeruginosa
Experimental: as §2, with “Pseudomonas aeruginosa NCTC 6751; Gram negative; Reference strain. Bacteria” for “Bacteria”, “hours. Cultures incubated for more than 24 hours are in the stationary phase. For drug screening, 5-6 day old stationary phase cultures were used. Different concentrations of each test compound were incubated with stationary phase cultures (5-6 day cultures) in 96 well plates for 24 or 48 hours. Bactericidal activity was then determined by taking CFU counts of the resulting cultures, as described above.” for “hours.”

With `CC[C@H]1OC(=O)[C@H](C)[C@@H](O[C@H]2C[C@@](C)(OC)[C@@H](O)[C@H](C)O2)[C@H](C)[C@@H](O[C@@H]2O[C@H](C)C[C@H](N(C)C)[C@H]2O)[C@](C)(O)C[C@@H](C)CN(C)[C@H](C)[C@@H](O)[C@]1(C)O` [azithromycin] the “activity against clinically latent microorganisms” value [1] was “little or no activity”.
In the case of `C/C(=C\C(=O)OCCCCCCCCC(=O)O)C[C@@H]1OC[C@H](C[C@@H]2O[C@H]2[C@@H](C)[C@H](C)O)[C@@H](O)[C@H]1O` [mupirocin], the “activity against clinically latent microorganisms” value [1] is reported as “little or no activity”.
For `OC(c1cc(C(F)(F)F)nc2c(C(F)(F)F)cccc12)C1CCCCN1` (stereo not drawn) [Mefloquine], the log reduction at 6.25 µg/mL ([2]; 6.25 μg/ml) was 0.02, the log reduction at 12.5 µg/mL ([2]; 12.5 μg/ml) was 0.03 and the log reduction at 25 µg/mL ([2]; 25 μg/ml) was 6.21. The spectrophotometer reading ([3]; mefloquine 0.25 mg/L alone) was 1.10, the spectrophotometer reading ([3]; mefloquine 0.5 mg/L alone) was 1.08 and the spectrophotometer reading ([3]; mefloquine 1 mg/L alone) was 1.10. For the same compound, the spectrophotometer reading ([3]; mefloquine 2 mg/L alone) was 1.09, the spectrophotometer reading ([3]; mefloquine 4 mg/L alone) was 1.09 and the spectrophotometer reading ([3]; mefloquine 8 mg/L alone) was 1.15. It also gave a spectrophotometer reading ([3]; mefloquine 16 mg/L alone) of 1.10, a spectrophotometer reading ([3]; mefloquine 32 mg/L alone) of 0.82 and a spectrophotometer reading ([3]; mefloquine 64 mg/L alone) of 0.60. It also gave a spectrophotometer reading ([3]; mefloquine 128 mg/L alone) of 0.33, a spectrophotometer reading ([3]; mefloquine 256 mg/L alone) of 0.34 and an MIC [4] of 10 µg/mL (≈ 26.4 µM). The log reduction at 6.25 µg/mL ([5]; 6.25 μg/ml) was 2.48, the log reduction at 12.5 µg/mL ([5]; 12.50 μg/ml) was 6.14 and the log reduction at 25 µg/mL ([5]; 25.00 μg/ml) was 6.14. The log reduction at 6.25 µg/mL ([6]; 6.25 μg/ml) was -0.01, the log reduction at 12.5 µg/mL ([6]; 12.5 μg/ml) was 6.03 and the log reduction at 25 µg/mL ([6]; 25 μg/ml) was 6.03. For the same compound, the “log reduction of the bacterium” value ([7]; 40 μg/ml) was “about 1.5 log”, the organism removed ([7]; 80 μg/ml) was “more than 10^7” and the “activity against stationary phase P. aeruginosa” value ([7]; FIG. 1) was “active”.
For `CC(=O)NC[C@H]1CN(c2ccc(N3CCOCC3)c(F)c2)C(=O)O1` [linezolid], the “activity against clinically latent microorganisms” value [1] was “little or no activity”.
